Measured values taken from patent publication US20140045807A2, “THE USE OF 3-METHOXY-PREGNENOLONE FOR THE PREPARATION OF A DRUG FOR TREATING A TRAUMATIC BRAIN INJURY” (priority 2004, published 2014).

System: GFAP
Test: GFAP immunostaining after Lateral Fluid Percussion (LFP)
Format: in vivo, rat
Details: first injection 2 hours post-trauma, day 35, no statistical analysis
Protocol: FIG. 24: Quantification of GFAP immunostaining in LFP-injured animals. (A) GFAP immunostaining in injured cortex of LFP-injured animals injected with vehicle (sesame oil), or 3-methoxy-PREG (MAP4343) at 10 mg/kg or 20 mg/kg, with first injection at 2 hours post-trauma. (B) GFAP immunostaining in injured and uninjured thalamus of LFP-injured animals injected with vehicle (sesame oil), or 3-methoxy-PREG (MAP4343) at 10 mg/kg or 20 mg/kg, with first injection at 2 hours post-trauma. No statistical analysis has been performed.
After anesthesia induction, the animal was placed on a stereotaxic frame. […]
Trauma was induced by a fluid percussion device (Custom Design and Manufacturing, United Kingdom) (Besson et al., 2003): it is a cylindrical tank (60 cm long), with a piston on one side, over which a hammer exercises a constraint, and a male Luer-Lock on the other side. […] The amplitude of each shock wave was measured via a pressure transducer connected to the terminal portion of the device. The pressure signal was recorded on an oscilloscope. […]
After mounting on Superfrost slides, frozen sections were dried for 90 minutes at room temperature and stored at −80° C. until use. […] Immunostaining was quantitatively assessed by optical density measurements directly from the section image (Image J). […]

CO[C@H]1CC[C@@]2(C)C(=CC[C@H]3[C@@H]4CC[C@H](C(C)=O)[C@@]4(C)CC[C@@H]32)C1 [3-methoxy-PREG, 3β-methoxy-pregna-5-ene-20-one]
astrocytes GFAP immunoreactivity in the injured cortex (10 mg/kg or 20 mg/kg): highly decreased | astrocytes immunoreactivity (GFAP) in the injured thalamus (especially Dose2 (20 mg/kg)): strongly decreases astrocytes immunoreactivity
